Like-named read-outs stand apart in the source and are kept apart here.
Experiments:
[1] = molecular target: T1, Adenosine A2a receptor (human) membrane (Homo sapiens, UniProt P29274); test: Determination of competitive inhibition constant (Ki) for adenosine A2a receptor, [3H]-CGS-21680 radioligand; assay type: binding; conditions: for Ki: human A2a receptor membrane, 6.0 nM [3H]-CGS-21680, read-out: Ki(A2a); for Ki(A1)/Ki(A2a): selectivity ratio A1 over A2a
T1 construct: purchased PerkinElmer RBHA2AM400UA
Experimental: (§1) Test Example 1: Determination of Competitive Inhibition Constant (Ki) for Adenosine A1 and A2a Receptors
Adenosine A2a receptor (human) membrane (PerkinElmer, RBHA2AM400UA),
assay buffer for A2a (50 mM Tris-HCl, 10 mM MgCl2, 1 mM EDTA, pH7.4), used to dilute adenosine A2a receptor (human) membrane (human origin) and [^3H]-CGS-21680; and
wash buffer for A2a (50 mM Tris-HCl, 154 mM NaCl, pH7.4).
(§2) Adenosine A1 receptor membrane was diluted to 0.025 μg/μl with assay buffer for A1, and Adenosine A2a receptor membrane was diluted to 0.05 μg/μl with assay buffer for A2a, so as to obtain Adenosine A1 receptor membrane dilution and Adenosine A2a receptor membrane dilution.
(§3) The compound to be tested and CGS-15943 were diluted with DMSO, and 1 W of the compound to be tested, high value control (0.5% DMSO), low value control (1000 nM CGS-15943) were added to a 96-well plate, and 100 W of Adenosine A1 receptor membrane dilution (containing 2.5 μg of membrane) was added to each well of the 96-well plate to obtain A1 detection plate; following the same steps, 100 W of Adenosine A2a receptor membrane dilution (containing 5.0 μg membrane) was added to each well of the 96-well plate to obtain A2a detection plate.
(§4) To the A1 detection plate, 100 μl of radioisotope-labeled ligand [^3H]-DPCPX (diluted with assay buffer for A1, working concentration of which was 1.0 nM) was added; and to the A2a detection plate, 100 μl of radioisotope-labeled ligand [^3H]-CGS-21680 (diluted with assay buffer for A2a, working concentration of which was 6.0 nM) was added. The A1 and A2a detection plates were sealed with tape, and incubated at room temperature for 1 h and 2 h, respectively.
(§5) Unifilter-96 GF/C filter plates were prepared, 50 μl of 0.3% PEI was added to each well of the Unifilter-96 GF/C filter plates, and the resulting filter plates were incubated at room temperature for not less than 0.5 h.
(§6) After the incubation was completed, the reaction solution was transferred from the A1 detection plate and the A2a detection plate to two Unifilter-96 GF/C filter plates, and washed with pre-cooled wash buffer for A1 and wash buffer for A2a, and then the filter plates were dried, sealed at bottom, then 50 W of Microscint 20 fluid scintillation cocktail was added, and then the filter plates were sealed at top, and counted by MicroBeta2 Reader.
(§7) Inhibition rate %=100−(signal value of test well−signal average value of low value control)/(signal average value of high value control−signal average value of low value control)*100.
(§8) EXCEL XLfit was used to fit IC50.
(§9) The calculation formula for competitive inhibition constant (Ki) was: Ki=IC50/(1+concentration of isotope-labeled ligand/Kd), wherein Kd was the dissociation constant of the isotope-labeled ligand.

[2] = molecular target: T2, Adenosine A1 receptor (human) membrane (Homo sapiens, UniProt P30542); test: Determination of competitive inhibition constant (Ki) for adenosine A1 receptor, [3H]-DPCPX radioligand; assay type: binding; conditions: 1.0 nM [3H]-DPCPX
T2 construct: purchased PerkinElmer ES-010-M400UA
T2 sequence (P30542 1-326): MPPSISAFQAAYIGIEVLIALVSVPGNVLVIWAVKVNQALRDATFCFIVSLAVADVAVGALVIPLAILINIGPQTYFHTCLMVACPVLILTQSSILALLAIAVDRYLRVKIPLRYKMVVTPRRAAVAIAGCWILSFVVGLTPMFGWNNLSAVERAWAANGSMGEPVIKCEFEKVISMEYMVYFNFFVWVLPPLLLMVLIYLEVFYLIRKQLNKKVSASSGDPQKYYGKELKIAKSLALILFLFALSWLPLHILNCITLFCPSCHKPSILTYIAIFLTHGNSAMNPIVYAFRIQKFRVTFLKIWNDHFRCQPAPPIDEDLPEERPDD
Experimental: as §1
[^3H]-DPCPX (PerkinElmer, NET974250UC),
Adenosine A1 receptor (human) membrane (PerkinElmer, ES-010-M400UA),
assay buffer for A1 (25 mM HEPES, 5 mM MgCl2, 1 mM CaCl2, 100 mM NaCl, pH7.4), used to dilute adenosine A1 receptor (human) membrane and [^3H]-DPCPX;
wash buffer for A1 (25 mM HEPES, 5 mM MgCl2, 1 mM CaCl2, 100 mM NaCl, pH7.4);
as §2, §3, §4, §5, §6, §7, §8, §9

[3] = Pharmacokinetics (PK) and distribution in brain tissue in rats; assay type: in vivo, male SD rats
Experimental: Test Example 3: Study on Pharmacokinetics (PK) and Distribution in Brain Tissue in Rats
The compounds of the present application were administered to male SD rats by intravenous (IV) and intragastric (PO) respectively to investigate the pharmacokinetic characteristics. The dosages of IV and PO were 1 mg/kg and 5 mg/kg, respectively. The solvent for IV was a mixture of 5% DMSO, 5% Solutol (polyethylene glycol 15-hydroxystearate) and 90% saline, and the solvent for PO was 0.5% MC (methyl cellulose sodium). Before IV administration (0 h) and at 0.083 h, 0.25 h, 0.5 h, 1 h, 2 h, 4 h, 6 h, 8 h and 24 h time points after administration, blood samples were collected; before PO administration (0 h) and at 0.25 h, 0.5 h, 1 h, 2 h, 4 h, 6 h, 8 h and 24 h time points after administration, blood samples were collected; the blood samples were anticoagulated with EDTA.K2, and centrifuged to obtain plasma samples. For Compound 11, brain tissue samples were taken and homogenized at 0.25 h, 0.5 h, 1 h, 4 h and 8 h; for Compounds 19 and 32, and brain tissue samples were taken and homogenized at 0.25 h, 0.5 h, 1 h and 8 h (three SD rats were selected for the experiment of distribution in brain tissue at each time point), and the resulting brain tissue homogenate samples were stored at −80° C. The plasma samples and brain tissue homogenate samples were subjected to precipitation of protein, and then LC-MS/MS analysis was performed.
Pharmacokinetic parameters were calculated by means of non-compartmental model by using WinNonlin 6.3 software.

T1 sequence (P29274 whole entry): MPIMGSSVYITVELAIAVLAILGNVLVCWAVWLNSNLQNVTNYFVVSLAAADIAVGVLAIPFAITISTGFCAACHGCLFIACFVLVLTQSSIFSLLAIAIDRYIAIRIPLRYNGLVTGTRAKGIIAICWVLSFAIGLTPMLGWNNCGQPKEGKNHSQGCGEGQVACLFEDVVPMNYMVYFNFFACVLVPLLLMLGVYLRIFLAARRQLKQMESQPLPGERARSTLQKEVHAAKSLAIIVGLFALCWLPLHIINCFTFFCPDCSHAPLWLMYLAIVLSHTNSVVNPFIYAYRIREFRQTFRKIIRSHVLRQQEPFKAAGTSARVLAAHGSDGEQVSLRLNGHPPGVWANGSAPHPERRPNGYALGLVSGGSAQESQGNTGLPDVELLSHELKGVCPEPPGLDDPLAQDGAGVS

Row | Ki [1] [µM] | Ki(A1)/Ki(A2a) [1] | Ki [2] [µM] | SMILES | bioavailability ([3]; male, SD, plasma, rat, oral 5 mg/kg compared with intravenous 1 mg/kg) [%] | Cmax ([3]; male, SD, rat plasma, IV, 1 mg/kg) [µg/mL] | AUC(0-t) ([3]; male, SD, rat plasma, IV, 1 mg/kg, read-out: AUClast) [µg·h/mL] | AUC(0-t) ([3]; male, SD, rat plasma, PO, 5 mg/kg, read-out: AUClast (plasma)) [µg·h/mL] | AUClast (brain) ([3]; rat brain tissue, PO, 5 mg/kg) [ng·h/g] | Plasma AUClast/brain AUClast ([3]; rat, PO, 5 mg/kg)
1 | 0.0212 | 75.0 | 1.59 | Cc1ncnc2ccc(-c3cnc(NC(=O)N4CCN(C)CC4)nc3-c3ccc(F)cc3)cc12 [Compound 30, N-(4-(4-fluorophenyl)-5-(4-methylquinazolin-6-yl)pyrimidin-2-yl)-4-methylpiperazine-1-carboxamide] |  |  |  |  |  | 
2 | 0.0277 | 120.1 | 3.33 | COCCN(C)C(=O)Nc1ncc(-c2ccc3ncnc(C)c3c2)c(-c2ccc(F)cc2)n1 [Compound 31, 3-(4-(4-fluorophenyl)-5-(4-methylquinazolin-6-yl)pyrimidin-2-yl)-1-(2-methoxyethyl)-1-methylurea] |  |  |  |  |  | 
3 | 0.0126 | 42.7 | 0.538 | Cc1ncnc2ccc(-c3cnc(NC(=O)N4CCO[C@@H](C)C4)nc3-c3ccc(F)cc3)cc12 [Compound 34, (S)-N-(4-(4-fluorophenyl)-5-(4-methylquinazolin-6-yl)pyrimidin-2-yl)-2-methylmorpholine-4-carboxamide] |  |  |  |  |  | 
4 | 0.0147 | 126.9 | 1.87 | Cc1cc(-c2cnc(NC(=O)N3CCCCC3)nc2-c2ccc(F)cc2)cc(Cl)n1 [Compound 35, N-(5-(2-chloro-6-methylpyridin-4-yl)-4-(4-fluorophenyl)pyrimidin-2-yl) piperidine-1-carboxamide] |  |  |  |  |  | 
5 | 0.0106 | 55.0 | 0.583 | Cc1cc(-c2cnc(NC(=O)N3CCO[C@@H](C)C3)nc2-c2ccc(F)cc2)cc(Cl)n1 [Compound 36, (S)-N-(5-(2-chloro-6-methylpyridin-4-yl)-4-(4-fluorophenyl)pyrimidin-2-yl)-2-methylmorpholine-4-carboxamide] |  |  |  |  |  | 
6 | 0.0233 | 173.7 | 4.05 | Cc1cc(-c2cnc(NC(=O)N3C[C@@H](C)O[C@@H](C)C3)nc2-c2ccc(F)cc2)cc(Cl)n1 [Compound 37, (2R,6S)-N-(5-(2-chloro-6-methylpyridin-4-yl)-4-(4-fluorophenyl)pyrimidin-2-yl)-2,6-dimethylmorpholine-4-carboxamide] |  |  |  |  |  | 
7 | 0.0131 | 107.4 | 1.41 | Cc1cc(-c2cnc(NC(=O)N3CCO[C@H](C)C3)nc2-c2ccc(F)cc2)cc(Cl)n1 [Compound 38, (R)-N-(5-(2-chloro-6-methylpyridin-4-yl)-4-(4-fluorophenyl)pyrimidin-2-yl)-2-methylmorpholine-4-carboxamide] |  |  |  |  |  | 
8 | 0.011 | 74.0 | 0.814 | Cc1ncnc2ccc(-c3cnc(NC(=O)N4C[C@@H](C)O[C@@H](C)C4)nc3-c3ccc(F)cc3)cc12 [Compound 39, (2R,6S)-N-(4-(4-fluorophenyl)-5-(4-methylquinazolin-6-yl)pyrimidin-2-yl)-2,6-dimethylmorpholine-4-carboxamide] |  |  |  |  |  | 
9 | 0.0054 | 76.2 | 0.411 | Cc1ncnc2ccc(-c3cnc(NC(=O)N4CCO[C@H](C)C4)nc3-c3ccc(F)cc3)cc12 [Compound 40, (R)-N-(4-(4-fluorophenyl)-5-(4-methylquinazolin-6-yl)pyrimidin-2-yl)-2-methylmorpholine-4-carboxamide] |  |  |  |  |  | 
10 | 0.0023 | 144.6 | 0.333 | Cc1ncnc2ccc(-c3c(Cl)cc(NC(=O)N4CCOCC4)nc3-c3ccc(F)cc3)cc12 [Compound 42, N-(4-chloro-6-(4-fluorophenyl)-5-(4-methylquinazolin-6-yl)pyridin-2-yl) morpholine-4-carboxamide] |  |  |  |  |  | 
11 | 0.0118 | 115.3 | 1.37 | Cc1cc(-c2c(C#N)cc(NC(=O)N3CCOCC3)nc2-c2ccc(F)cc2)cc(Cl)n1 [Compound 45, N-(2′-chloro-4-cyano-2-(4-fluorophenyl)-6′-methyl-[3,4′-bipyridyl]-6-yl) morpholine-4-carboxamide] |  |  |  |  |  | 
12 | 0.00513 | 42.4 | 0.217 | Cc1ccnc2ccc(-c3c(-c4ccc(F)cc4)nc(NC(=O)N4CCOCC4)nc3C3CC3)cc12 [Compound 47, N-(4-cyclopropyl-6-(4-fluorophenyl)-5-(4-methylquinolin-6-yl)pyrimidin-2-yl)morpholine-4-carboxamide] |  |  |  |  |  | 

Row | SMILES | Ki [1] [µM] | Ki(A1)/Ki(A2a) [1] | Ki [2] [µM] | bioavailability ([3]; male, SD, plasma, rat, oral 5 mg/kg compared with intravenous 1 mg/kg) [%] | Cmax ([3]; male, SD, rat plasma, IV, 1 mg/kg) [µg/mL] | AUC(0-t) ([3]; male, SD, rat plasma, IV, 1 mg/kg, read-out: AUClast) [µg·h/mL] | AUC(0-t) ([3]; male, SD, rat plasma, PO, 5 mg/kg, read-out: AUClast (plasma)) [µg·h/mL] | AUClast (brain) ([3]; rat brain tissue, PO, 5 mg/kg) [ng·h/g] | Plasma AUClast/brain AUClast ([3]; rat, PO, 5 mg/kg)
13 | Cc1ncnc2ccc(-c3cc(F)c(NC(=O)N4CCOCC4)nc3-c3ccc(F)cc3)cc12 [Compound 32, N-(3-fluoro-6-(4-fluorophenyl)-5-(4-methylquinazolin-6-yl)pyridin-2-yl) morpholine-4-carboxamide] | 0.0095 | 56.2 | 0.534 | 80.2 | 1.48 | 1.82 | 7.31 | 52.9 | 138/1
14 | Cc1ncnc2ccc(-c3ccc(NC(=O)N4CCOCC4)nc3-c3ccc(F)cc3)cc12 [Compound 41, N-(6-(4-fluorophenyl)-5-(4-methylquinazolin-6-yl)pyridin-2-yl)morpholine-4-carboxamide] | 0.00192 | 1319.0 | 2.53 |  |  |  |  |  | 
